According to ChEMBL document CHEMBL4000149, “The effect of glycine replacement with flexible ω-amino acids on the antimicrobial and haemolytic activity of an amphipathic cyclic heptapeptide” (Eur J Med Chem, 2015):
≈ marks a conversion by molar mass, not a printed value. Numbered stars: 1 amine (or outer) side, 2 acyl side, 3 side chain; on linkers, the order of the positions; unused ones are H or OH. Bridge positions count the residues as written; N and C are the ends. Square brackets hold non-standard residues; d marks the D form. Peptide text beside a SMILES is read from it. ξ: configuration not given here. Bip = N[C@@H](Cc1ccc(-c2ccccc2)cc1)C(=O)O; Dip = N[C@H](C(=O)O)C(c1ccccc1)c1ccccc1; NH(CH2)9CO = O=C(CCCCCCCCCN[*:1])[*:2]; 2Nal = N[C@@H](Cc1ccc2ccccc2c1)C(=O)O; Cha = N[C@@H](CC1CCCCC1)C(=O)O; X1 = NC(CCN[*:2])C(=O)[*:1]; ξAoc(2) = CCCCCCC(N)C(=O)O; ξNle = CCCCC(N)C(=O)O; ξDab = NCCC(N)C(=O)O; Ahx = NCCCCCC(=O)O; GABA = NCCCC(=O)O

How the values were obtained:
Acinetobacter baumannii = experiment: Antimicrobial activity against multidrug-resistant Acinetobacter baumannii ATCC BAA-1605 by tube dilution method; format: functional
Enterococcus faecium = experiment: Antimicrobial activity against vancomycin-resistant Enterococcus faecium ATCC 700221 by tube dilution method; format: functional
Candida albicans = experiment: Antifungal activity against Candida albicans ATCC 200955 by tube dilution method; format: functional
Pseudomonas aeruginosa = experiment: Antimicrobial activity against Pseudomonas aeruginosa ATCC 27853 by tube dilution method; format: functional
Staphylococcus aureus = experiment: Antimicrobial activity against methicillin-resistant Staphylococcus aureus ATCC 33591 by tube dilution method; format: functional
[1] = Toxicity in human erythrocytes assessed as hemolysis at 150 uM after 1 hr; format: cell-based, Erythrocyte; conditions: read-out: Activity
Escherichia coli = experiment: Antimicrobial activity against Escherichia coli ATCC 25922 by tube dilution method; format: functional
Klebsiella pneumoniae = experiment: Antimicrobial activity against multidrug-resistant Klebsiella pneumoniae ATCC 700603 by tube dilution method; format: functional
[2] = Toxicity in human erythrocytes assessed as hemolysis after 1 hr; format: cell-based, Erythrocyte

SMILES | MIC (Acinetobacter baumannii) [µM] | MIC (Enterococcus faecium) [µM] | MIC (Candida albicans) [µM] | MIC (Pseudomonas aeruginosa) [µM] | MIC (Staphylococcus aureus) [µM] | hemolysis at 1 h, 150 µM [1] [%] | MIC (Escherichia coli) [µM] | MIC (Klebsiella pneumoniae) [µM] | EC50 at 1 hr [2] [µM]
CC(C)C[C@@H]1NC(=O)CCCNC(=O)[C@H](Cc2ccc3ccccc3c2)NC(=O)[C@H](CCCNC(=N)N)NC(=O)[C@H](CC(C)C)NC(=O)[C@H](Cc2ccc3ccccc3c2)NC(=O)[C@H](CCCNC(=N)N)NC1=O (cyclo([2Nal][GABA]LR[2Nal]LR)) | 128 (≈ 130 µg/mL) | 8 (≈ 8.15 µg/mL) | 16 (≈ 16.3 µg/mL) | 128 (≈ 130 µg/mL) | 16 (≈ 16.3 µg/mL) | 22 | 64 (≈ 65.2 µg/mL) | 128 (≈ 130 µg/mL) | 230
CC(C)C[C@@H]1NC(=O)CCCCCNC(=O)[C@H](Cc2ccc3ccccc3c2)NC(=O)[C@H](CCCNC(=N)N)NC(=O)[C@H](CC(C)C)NC(=O)[C@H](Cc2ccc3ccccc3c2)NC(=O)[C@H](CCCNC(=N)N)NC1=O (cyclo([2Nal][Ahx]LR[2Nal]LR)) | 64 (≈ 67 µg/mL) | 4 (≈ 4.19 µg/mL) | 16 (≈ 16.7 µg/mL) | 64 (≈ 67 µg/mL) | 8 (≈ 8.37 µg/mL) | 75 | 32 (≈ 33.5 µg/mL) | 128 (≈ 134 µg/mL) | 115
CC(C)C[C@@H]1NC(=O)CNC(=O)[C@@H](Cc2ccc3ccccc3c2)NC(=O)[C@H](CCCNC(=N)N)NC(=O)[C@H](CC(C)C)NC(=O)[C@H](Cc2ccc3ccccc3c2)NC(=O)[C@H](CCCNC(=N)N)NC1=O | 128 (≈ 127 µg/mL) | 16 (≈ 15.8 µg/mL) | 64 (≈ 63.4 µg/mL) | > 128 | 32 (≈ 31.7 µg/mL) | < 8 | 128 (≈ 127 µg/mL) | > 128 | > 150
CCCCC1NC(=O)[C@H](Cc2ccc3ccccc3c2)NC(=O)[C@H](CCCNC(=N)N)NC(=O)[C@H](CC(C)C)NC(=O)CNC(=O)[C@H](Cc2ccc3ccccc3c2)NC(=O)[C@H](CCCNC(=N)N)NC1=O (stereo partly specified) (cyclo([2Nal]GLR[2Nal][ξNle]R)) | > 128 | 16 (≈ 15.8 µg/mL) | > 128 | > 128 | 32 (≈ 31.7 µg/mL) | 35 | > 128 | > 128 | > 150
CCCCCCC1NC(=O)[C@H](Cc2ccc3ccccc3c2)NC(=O)[C@H](CCCNC(=N)N)NC(=O)[C@H](CC(C)C)NC(=O)CNC(=O)[C@H](Cc2ccc3ccccc3c2)NC(=O)[C@H](CCCNC(=N)N)NC1=O (stereo partly specified) | 16 (≈ 16.3 µg/mL) | 2 (≈ 2.04 µg/mL) | 4 (≈ 4.07 µg/mL) | 32 (≈ 32.6 µg/mL) | 4 (≈ 4.07 µg/mL) | 100 | 16 (≈ 16.3 µg/mL) | 16 (≈ 16.3 µg/mL) | 33
CC(C)C[C@@H]1NC(=O)CNC(=O)[C@H](Cc2c[nH]c3ccccc23)NC(=O)[C@H](CCCNC(=N)N)NC(=O)[C@H](CC(C)C)NC(=O)[C@H](Cc2c[nH]c3ccccc23)NC(=O)[C@H](CCCNC(=N)N)NC1=O (cyclo(GLRWLRW)) | > 128 | 64 (≈ 62 µg/mL) | > 128 | > 128 | 128 (≈ 124 µg/mL) | < 8 | > 128 | > 128 | > 150
CC(C)C[C@@H]1NC(=O)[C@H](Cc2ccc3ccccc3c2)NC(=O)[C@H](CCCNC(=N)N)NC(=O)[C@@H]2CCCN2C(=O)CNC(=O)[C@H](Cc2ccc3ccccc3c2)NC(=O)[C@H](CCCNC(=N)N)NC1=O (cyclo([2Nal]GPR[2Nal]LR)) | > 128 | 16 (≈ 15.6 µg/mL) | 64 (≈ 62.3 µg/mL) | 128 (≈ 125 µg/mL) | 64 (≈ 62.3 µg/mL) | < 8 | > 128 | > 128 | > 150
CC(C)C[C@@H]1NC(=O)CNC(=O)[C@H](Cc2ccc(-c3ccccc3)cc2)NC(=O)[C@H](CCCNC(=N)N)NC(=O)[C@H](CC(C)C)NC(=O)[C@H](Cc2ccc(-c3ccccc3)cc2)NC(=O)[C@H](CCCNC(=N)N)NC1=O (cyclo([Bip]GLR[Bip]LR)) | 32 (≈ 33.4 µg/mL) | 8 (≈ 8.34 µg/mL) | 16 (≈ 16.7 µg/mL) | 64 (≈ 66.7 µg/mL) | 8 (≈ 8.34 µg/mL) | 96 | 16 (≈ 16.7 µg/mL) | 32 (≈ 33.4 µg/mL) | 16
CC(C)C[C@@H]1NC(=O)CNC(=O)[C@H](Cc2ccc3ccccc3c2)NC(=O)[C@H](CCCNC(=N)N)NC(=O)[C@@H]2CCCN2C(=O)[C@H](Cc2ccc3ccccc3c2)NC(=O)[C@H](CCCNC(=N)N)NC1=O (cyclo([2Nal]GLR[2Nal]PR)) | > 128 | 32 (≈ 31.2 µg/mL) | 128 (≈ 125 µg/mL) | > 128 | 64 (≈ 62.3 µg/mL) | < 8 | > 128 | > 128 | > 150
CC(C)C[C@@H]1NC(=O)CNC(=O)[C@H](C(c2ccccc2)c2ccccc2)NC(=O)[C@H](CCCNC(=N)N)NC(=O)[C@H](CC(C)C)NC(=O)[C@H](C(c2ccccc2)c2ccccc2)NC(=O)[C@H](CCCNC(=N)N)NC1=O (cyclo([Dip]GLR[Dip]LR)) | 64 (≈ 66.7 µg/mL) | 16 (≈ 16.7 µg/mL) | 64 (≈ 66.7 µg/mL) | > 128 | 16 (≈ 16.7 µg/mL) | 54 | 64 (≈ 66.7 µg/mL) | 128 (≈ 133 µg/mL) | 145
CCCCCCC1NC(=O)[C@H](Cc2ccc3ccccc3c2)NC(=O)[C@H](CCCNC(=N)N)NC(=O)[C@H](CC(C)C)NC(=O)C(N)CCNC(=O)C(N)CCNC(=O)[C@H](Cc2ccc3ccccc3c2)NC(=O)[C@H](CCCNC(=N)N)NC1=O (stereo partly specified) (H-[ξDab]LR[2Nal][ξAoc(2)]R[2Nal]; linker 1-C via X1) | 64 (≈ 74.3 µg/mL) | 4 (≈ 4.65 µg/mL) | 8 (≈ 9.29 µg/mL) | 32 (≈ 37.2 µg/mL) | 4 (≈ 4.65 µg/mL) | 100 | 16 (≈ 18.6 µg/mL) | 64 (≈ 74.3 µg/mL) | 55
CC(C)C[C@@H]1NC(=O)[C@H](Cc2ccc3ccccc3c2)NC(=O)[C@H](CCCNC(=N)N)NC(=O)[C@H](CC2CCCCC2)NC(=O)CNC(=O)[C@H](Cc2ccc3ccccc3c2)NC(=O)[C@H](CCCNC(=N)N)NC1=O (cyclo([2Nal]G[Cha]R[2Nal]LR)) | 64 (≈ 65.9 µg/mL) | 16 (≈ 16.5 µg/mL) | 32 (≈ 33 µg/mL) | 128 (≈ 132 µg/mL) | 16 (≈ 16.5 µg/mL) | 99 | 32 (≈ 33 µg/mL) | 128 (≈ 132 µg/mL) | 28
CC(C)C[C@@H]1NC(=O)CNC(=O)[C@H](Cc2ccc3ccccc3c2)NC(=O)[C@H](CCCNC(=N)N)NC(=O)[C@H](CC(C)C)NC(=O)[C@H](Cc2ccc3ccccc3c2)NC(=O)[C@H](CCCCN)NC1=O (cyclo([2Nal]GLK[2Nal]LR)) | > 128 | 16 (≈ 15.4 µg/mL) | 32 (≈ 30.8 µg/mL) | 128 (≈ 123 µg/mL) | 32 (≈ 30.8 µg/mL) | 14 | 128 (≈ 123 µg/mL) | > 128 | > 150
CC(C)C[C@@H]1NC(=O)CCCNC(=O)C(N)CCNC(=O)[C@H](Cc2ccc3ccccc3c2)NC(=O)[C@H](CCCNC(=N)N)NC(=O)[C@H](CC(C)C)NC(=O)[C@H](Cc2ccc3ccccc3c2)NC(=O)[C@H](CCCNC(=N)N)NC1=O (stereo partly specified) (H-[ξDab][GABA]LR[2Nal]LR[2Nal]; lactam 1-C) | 32 (≈ 35.8 µg/mL) | 8 (≈ 8.95 µg/mL) | 16 (≈ 17.9 µg/mL) | 64 (≈ 71.6 µg/mL) | 16 (≈ 17.9 µg/mL) | 12 | 32 (≈ 35.8 µg/mL) | 32 (≈ 35.8 µg/mL) | 255
CC(C)C[C@@H]1NC(=O)CNC(=O)[C@H](Cc2c[nH]c3ccccc23)NC(=O)[C@H](CCCCN)NC(=O)[C@H](CC(C)C)NC(=O)[C@H](Cc2c[nH]c3ccccc23)NC(=O)[C@H](CCCCN)NC1=O (cyclo(GLKWLKW)) | 128 (≈ 117 µg/mL) | 128 (≈ 117 µg/mL) | > 128 | > 128 | > 128 | < 8 | 128 (≈ 117 µg/mL) | > 128 | > 150
CC(C)C[C@@H]1NC(=O)CCCCCCCCCNC(=O)[C@H](Cc2ccc3ccccc3c2)NC(=O)[C@H](CCCNC(=N)N)NC(=O)[C@H](CC(C)C)NC(=O)[C@H](Cc2ccc3ccccc3c2)NC(=O)[C@H](CCCNC(=N)N)NC1=O (cyclo([2Nal]LR[2Nal][NH(CH2)9CO]LR)) | 16 (≈ 17.6 µg/mL) | 4 (≈ 4.41 µg/mL) | 16 (≈ 17.6 µg/mL) | > 64 | 4 (≈ 4.41 µg/mL) | 100 | 64 (≈ 70.6 µg/mL) | > 64 | 15
CC(C)C[C@@H]1NC(=O)C(N)CCNC(=O)C(N)CCNC(=O)[C@H](Cc2ccc3ccccc3c2)NC(=O)[C@H](CCCNC(=N)N)NC(=O)[C@H](CC(C)C)NC(=O)[C@H](Cc2ccc3ccccc3c2)NC(=O)[C@H](CCCNC(=N)N)NC1=O (stereo partly specified) (H-[ξDab]LR[2Nal]LR[2Nal]; linker 1-C via X1) | 128 (≈ 145 µg/mL) | 8 (≈ 9.07 µg/mL) | 16 (≈ 18.1 µg/mL) | 32 (≈ 36.3 µg/mL) | 16 (≈ 18.1 µg/mL) | < 8 | 32 (≈ 36.3 µg/mL) | 128 (≈ 145 µg/mL) | > 450
CC(C)C[C@@H]1NC(=O)[C@H](Cc2ccc3ccccc3c2)NC(=O)[C@H](CCCNC(=N)N)NC(=O)[C@H]([C@@H](C)O)NC(=O)CNC(=O)[C@H](Cc2ccc3ccccc3c2)NC(=O)[C@H](CCCNC(=N)N)NC1=O (cyclo([2Nal]GTR[2Nal]LR)) | > 128 | 64 (≈ 62.6 µg/mL) | 128 (≈ 125 µg/mL) | > 128 | 32 (≈ 31.3 µg/mL) | < 8 | > 128 | > 128 | > 150
CC(C)C[C@@H]1NC(=O)CNC(=O)[C@H](Cc2ccccc2)NC(=O)[C@H](CCCCN)NC(=O)[C@H](CC(C)C)NC(=O)[C@H](Cc2ccccc2)NC(=O)[C@H](CCCCN)NC1=O (cyclo(FGLKFLK)) | 128 (≈ 107 µg/mL) | 128 (≈ 107 µg/mL) | > 128 | > 128 | > 128 | < 8 | 128 (≈ 107 µg/mL) | > 128 | > 150
